According to patent US20220016101A1 (ACADIA Pharmaceuticals Inc., priority 2018, published 2022):
Where “and” joins values, the source holds several entries; their conditions need not be identical. Identical values can stand only once.

How the values were obtained:
[1] = system: patients with MDD and an inadequate response to an SSRI or SNRI; test: HAMD-17 total score, adjunctive pimavanserin in MDD (Study ACP-103-042); format: in vivo, human; details: for Response Rate: 50% or greater reduction on HAMD-17
From the text: “Hamilton Depression Scale 17-item (HAMD-17)” is a multiple item questionnaire used to provide an indication of depression, and is known to those skilled in the art. The questionnaire is designed for adults to rate the severity of depression by probing mood, feelings of guilt, suicide ideation, insomnia, work and interests, agitation or retardation, anxiety, weight loss, and somatic symptoms. Each item on the questionnaire is scored on a 3 or 5 point scale, depending on the item, and the total score is compared to the corresponding descriptor. A score of 0-7 is considered to be normal. Scores of 14 or higher indicate moderate, severe, or very severe depression. Assessment time is estimated at 20 minutes. […] Key endpoints were change from baseline to the end of each stage for the HAMD-17 total score and SDS score. The study consisted of an 8- to 21-day screening period, a 10-week double-blind treatment period, and a safety follow up period of up to 30 days. Screening assessments consisted of the SAFER Interview ([…] al, Harv Rev Psychiatry. 2013; 21(5):269-74), which included the MADRS, CGI-S, and MGH ATRQ. […] All patients continued on their SSRI or SNRI at a stable dose for the duration of the study. […] Inadequate treatment response was determined through the administration of the MGH ATRQ administered during the SAFER interview. […] Clinic visits occurred weekly from Weeks 1 through 10. The MADRS was administered at screening and baseline. The HAMD-17, SDS, CGI, and KSS were administered at baseline and weekly during the study. Other endpoints such as the SF-12 were administered at baseline and Weeks 5 and 10. Treatment response was defined as a reduction of 50% from baseline for the HAMD-17 total score, and remission was defined as a HAMD-17 total score […] The determination of the subject's status and eligibility for randomization in Stage 2 was made in a double-blind manner.

[2] = system: patients with MDD and an inadequate response to an SSRI or SNRI; test: Sheehan Disability Score (SDS): score, functional remission, days unproductive, MDD study; format: in vivo, human
From the text: The SDS is well validated and widely accepted for assessing functional outcomes in patients with MDD (Weiller et al, Neuropsychiatr Dis Treat. 2017; 14:103-115). […] Routine assessments of both symptoms and function could be helpful for minimizing residual effects that increase the risk for relapse or recurrence (Sheehan et al, J Affect Disord. 2017; 215:299-313).
“Functional remission” as used herein refers to remission in functional impairment. Functional remission is defined as a SDS total score of 6 or less at endpoint. (Sheehan et al. Human Psychopharmacology 2016, 31, 53-63).
All patients continued on their SSRI or SNRI at a stable dose for the duration of the study.
Clinic visits occurred weekly from Weeks 1 through 10. The MADRS was administered at screening and baseline. The HAMD-17, SDS, CGI, and KSS were administered at baseline and weekly during the study. Other endpoints such as the SF-12 were administered at baseline and Weeks 5 and 10. Treatment response was defined as a reduction of 50% from baseline for the HAMD-17 total score, and remission was defined as a HAMD-17 total score
In Stage 1, weeks 1-5 is the study weeks 1-5 and in Stage 2, weeks 1-5 is the study weeks 6-10. 95% CI refers to Newcombe 95% confidence interval. The p-value is from stage-specific Pearson's Chi-square test. Functional remission is defined as SDS total score […].
Higher SDS mean score indicates greater functional impairment. […] In Stage 1, weeks 1-5 is the study weeks 1-5 and in Stage 2, weeks 1-5 is the study weeks 6-10. LSM from the stage-specific MMRM analysis with the change from baseline as the outcome; treatment group, visit, treatment-by-visit interaction, baseline SDS Day Unproductive, and baseline SDS Days Unproductive-by-visit interaction as the factors. 2-sided p-value for treatment difference from the stage-specific MMRM analysis.

dopamine transporter = dopamine transporter (Homo sapiens, UniProt Q01959); test: Receptor profile: affinity (Ki) at DAT; format: binding; details: data on file
[3] = system: patients with MDD and an inadequate response to an SSRI or SNRI; test: Safety and tolerability (adverse events), Study ACP-103-042
[4] = Stage 1, 34 mg QD + SSRI/SNRI, listed as Pimavanserin
[5] = Stage 1, subgroup baseline anxiety/somatization subscale score ≥7
[6] = Stage 2, subgroup baseline anxiety/somatization subscale score ≥7

Sequence of dopamine transporter (Q01959 whole entry): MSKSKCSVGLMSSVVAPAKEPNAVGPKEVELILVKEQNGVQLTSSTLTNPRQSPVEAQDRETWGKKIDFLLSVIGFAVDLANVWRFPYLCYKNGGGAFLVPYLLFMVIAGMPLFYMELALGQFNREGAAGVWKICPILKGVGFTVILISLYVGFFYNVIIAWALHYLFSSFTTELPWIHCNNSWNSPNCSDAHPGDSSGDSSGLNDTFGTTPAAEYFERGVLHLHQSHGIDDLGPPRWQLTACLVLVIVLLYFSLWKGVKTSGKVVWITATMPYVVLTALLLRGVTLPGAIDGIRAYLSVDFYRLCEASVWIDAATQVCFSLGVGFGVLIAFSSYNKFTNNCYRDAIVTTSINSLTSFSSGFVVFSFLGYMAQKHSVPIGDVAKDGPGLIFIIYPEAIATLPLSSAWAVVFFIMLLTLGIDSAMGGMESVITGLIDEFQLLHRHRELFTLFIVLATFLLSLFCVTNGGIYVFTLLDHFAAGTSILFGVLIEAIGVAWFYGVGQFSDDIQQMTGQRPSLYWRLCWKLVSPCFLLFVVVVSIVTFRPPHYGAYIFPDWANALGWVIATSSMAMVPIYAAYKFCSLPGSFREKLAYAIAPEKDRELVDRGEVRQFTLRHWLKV

`CC(C)COc1ccc(CNC(=O)N(Cc2ccc(F)cc2)C2CCN(C)CC2)cc1` [pimavanserin, N-(4-Fluorophenylmethyl)-N-(1-methylpiperidin-4-yl)-N′-(4-(2-methylpropyloxy)phenylmethyl)carbamide] was tested, and the NNT for remission ([1]; Stage 1) was 8.1, the “early improvement (reduction from baseline in HAMD-17 total score of 20% or more) vs placebo” value ([1]; Stage 1) was “early improvement at week 1 was observed” and the “response and remission rates vs placebo” value ([1]; Stage 1, Week 2 through Week 5) was “significantly (p<0.05) greater”. The “HAMD-17 total score LSmean (SE) change from baseline to Week 5” value ([1]; Stage 1, 34 mg QD + SSRI/SNRI) was −11.5 (0.94), the “Remission Rate” value ([1]; Stage 1, 34 mg QD + SSRI/SNRI) was 23.5% and the “HAMD-17 total score LSmean (SE) change from baseline to Week 5” value [1, 4] was −11.5. The “Response Rate” value ([1]; Stage 1, 34 mg QD + SSRI/SNRI) was 52.9%, the NNT for response ([1]; Stage 1, response = reduction of 50% from baseline HAMD-17 total score) was 3.6 and the “HAMD-17 total score Diff in LSM (SE) vs placebo” value [1, 5] was −6.6 (1.64). The “HAMD-17 total score effect size (Cohen's d)” value [1, 5] was 0.940, the “HAMD-17 total score LSM (SE) Change from Baseline to Week 5” value ([1]; Stage 1, subgroup baseline anxiety/somatization subscale score ≥7, 34 mg QD + SSRI/SNRI) was −14.1 (1.39) and the “HAMD-17 total score effect size (Cohen's d)” value ([1]; Stage 1 Week 5, 34 mg QD + SSRI/SNRI) was 0.626 and ~0.6. The “HAMD-17 total score effect size (Cohen's d)” value ([1]; Stage 1 Week 5, 34 mg QD + SSRI/SNRI, listed as Pimavanserin) was 0.626, the “HAMD-17 total score LSM change from baseline to Week 5” value ([1]; Stage 2 (placebo non-responders re-randomized), 34 mg QD + SSRI/SNRI) was −2.8 and the “HAMD-17 Cohen's d” value ([1]; Stage 2, 34 mg QD + SSRI/SNRI) was −0.107. The “HAMD-17 difference between pimavanserin and placebo (delta)” value ([1]; Stage 2, 34 mg QD + SSRI/SNRI) was 0.5, the “Remission Rate” value ([1]; Stage 2, 34 mg QD + SSRI/SNRI) was 3.4% and the “Response Rate” value ([1]; Stage 2, 34 mg QD + SSRI/SNRI) was 6.9%. For the same compound, the “HAMD-17 total score Diff in LSM (SE) vs placebo” value [1, 6] was 0.9 (1.84), the “HAMD-17 total score effect size (Cohen's d)” value [1, 6] was −0.173 and the “HAMD-17 total score LSM (SE) Change from Baseline to Week 5” value ([1]; Stage 2, subgroup baseline anxiety/somatization subscale score ≥7, 34 mg QD + SSRI/SNRI) was −3.4 (1.25). For the same compound, the “HAMD-17 effect size, treatment difference in LSmean change from baseline to Week 10” value ([1]; continuous treatment for 10 weeks in Stages 1 and 2, 34 mg QD + SSRI/SNRI) was 0.497, the “HAMD-17 total LSmean difference [standard error] pimavanserin vs placebo” value ([1]; overall (weighted Stage 1 and Stage 2), 34 mg QD + SSRI/SNRI) was -1.7 (0.85) and the “SDS Days Unproductive Effect Size (Cohen's d)” value ([2]; Stage 1) was 0.518. For the same compound, the “SDS Days Unproductive Change from Baseline to Week 5 Mean (SE)” value ([2]; Stage 1, 34 mg QD + SSRI/SNRI) was −2.364 (0.3253), the “SDS Days Unproductive Change from Baseline to Week 5 Median” value ([2]; Stage 1, 34 mg QD + SSRI/SNRI) was −2.000 and the “SDS Days Unproductive Week 5 Mean (SE)” value ([2]; Stage 1, 34 mg QD + SSRI/SNRI) was 0.956 (0.2356). For the same compound, the “SDS Days Unproductive Week 5 Median” value ([2]; Stage 1, 34 mg QD + SSRI/SNRI) was 0.000, the “SDS score LSmean (SE) change from baseline to Week 5” value ([2]; Stage 1, 34 mg QD + SSRI/SNRI) was −3.3 (0.35) and the “SDS score LSmean (SE) change from baseline to Week 5” value [2, 4] was −3.254. For the same compound, the “SDS effect size (Cohen's d)” value ([2]; Stage 1 Week 5) was 0.498 and ~0.5, the “SDS individual items (work/school, social life, family life/home responsibilities) effect size vs placebo” value ([2]; Stage 1 Week 5) was “a positive effect size was observed for all the 3 individual items” and the “SDS effect size (Cohen's d)” value ([2]; Stage 1 Week 5, listed as Pimavanserin) was 0.498. For the same compound, the “SDS Days Unproductive Effect Size (Cohen's d)” value ([2]; Stage 2) was 0.167, the “SDS effect size (Cohen's d)” value ([2]; Stage 2) was 0.311 and the “SDS Days Unproductive Change from Baseline to Week 5 Mean (SE)” value ([2]; Stage 2, 34 mg QD + SSRI/SNRI) was −0.655 (0.4689). The “SDS Days Unproductive Change from Baseline to Week 5 Median” value ([2]; Stage 2, 34 mg QD + SSRI/SNRI) was −1.000, the “SDS Days Unproductive Week 5 Mean (SE)” value ([2]; Stage 2, 34 mg QD + SSRI/SNRI) was 2.276 (0.4295) and the “SDS Days Unproductive Week 5 Median” value ([2]; Stage 2, 34 mg QD + SSRI/SNRI) was 2.000. For the same compound, the “SDS Score LSM change from baseline to Week 5” value ([2]; Stage 2, 34 mg QD + SSRI/SNRI) was −0.901, the “Functional remission: Remitter (%)” value ([2]; Week 1, Stage 1, 34 mg QD + SSRI/SNRI) was 9 (17.6) % and the “Functional remission: Remitter (%)” value ([2]; Week 1, Stage 2, 34 mg QD + SSRI/SNRI) was 2 (6.9) %. For the same compound, the “Functional remission: Remitter (%)” value ([2]; Week 2, Stage 1, 34 mg QD + SSRI/SNRI) was 21 (41.2) %, the “Functional remission: Remitter (%)” value ([2]; Week 2, Stage 2, 34 mg QD + SSRI/SNRI) was 3 (10.3) % and the “Functional remission: Remitter (%)” value ([2]; Week 3, Stage 1, 34 mg QD + SSRI/SNRI) was 20 (39.2) %. The “Functional remission: Remitter (%)” value ([2]; Week 3, Stage 2, 34 mg QD + SSRI/SNRI) was 3 (10.3) %, the “Functional remission: Remitter (%)” value ([2]; Week 4, Stage 1, 34 mg QD + SSRI/SNRI) was 20 (39.2) % and the “Functional remission: Remitter (%)” value ([2]; Week 4, Stage 2, 34 mg QD + SSRI/SNRI) was 4 (13.8) %. For the same compound, the “Functional remission: Remitter (%)” value ([2]; Week 5, Stage 1, 34 mg QD + SSRI/SNRI) was 22 (43.1) %, the “Functional remission: Remitter (%)” value ([2]; Week 5, Stage 2, 34 mg QD + SSRI/SNRI) was 6 (20.7) % and the “SDS effect size, treatment difference in LSmean change from baseline to Week 10” value ([2]; continuous treatment for 10 weeks in Stages 1 and 2) was 0.469. The “Weighted Treatment Diff in Remission Rate (%)” value ([2]; functional remission, Overall Treatment Comparison at Week 5 (Linear Combination Test)) was 18.6%, the “Diff (PIM 34 mg-Placebo) in Remission Rate (%)” value (“Diff (PIM 34 mg-Placebo) … (%)” for short) ([2]; functional remission, Week 1, Stage 1) was 5.1% and the “Diff (PIM 34 mg-Placebo) … (%)” value ([2]; functional remission, Week 1, Stage 2) was −3.4%. For the same compound, the “Diff (PIM 34 mg-Placebo) … (%)” value ([2]; functional remission, Week 2, Stage 1) was 27.4%, the “Diff (PIM 34 mg-Placebo) … (%)” value ([2]; functional remission, Week 2, Stage 2) was 0.0% and the “Diff (PIM 34 mg-Placebo) … (%)” value ([2]; functional remission, Week 3, Stage 1) was 24.1%. For the same compound, the “Diff (PIM 34 mg-Placebo) … (%)” value ([2]; functional remission, Week 3, Stage 2) was 0.0%, the “Diff (PIM 34 mg-Placebo) … (%)” value ([2]; functional remission, Week 4, Stage 1) was 19.5% and the “Diff (PIM 34 mg-Placebo) … (%)” value ([2]; functional remission, Week 4, Stage 2) was 6.9%. For the same compound, the “Diff (PIM 34 mg-Placebo) … (%)” value ([2]; functional remission, Week 5, Stage 1) was 23.4%, the “Diff (PIM 34 mg-Placebo) … (%)” value ([2]; functional remission, Week 5, Stage 2) was 13.8% and the “SDS LSmean difference (SE) pimavanserin vs placebo” value ([2]; overall (weighted Stage 1 and Stage 2)) was −0.8 (0.29). For the same compound, the Ki (dopamine transporter) was over 1 µM, the “Discontinuations due to adverse events” value ([3]; 34 mg QD + SSRI/SNRI) was 1.2% and 1.9% and the “rates of daytime sleepiness, weight gain, metabolic laboratory tests, and sexual dysfunction” value ([3]; 34 mg QD + SSRI/SNRI) was “low rates”. The tolerability ([3]; 34 mg QD + SSRI/SNRI) was “generally well-tolerated”, the tolerability ([3]; 34 mg QD + SSRI/SNRI, listed as Pimavanserin) was “well tolerated” and the “subjects reporting serious adverse events” value ([3]; deemed not related to study drug) was “One subject”.
